Test [1] concerns brassinin oxidase (BO). Description: Inhibitory effect of paldoxins on purified BO (brassinin as substrate, HPLC-DAD). Conditions: for Inhibiton (%) of BO: brassinin 0.10 mM, purified BO, ± SD of four independent experiments. Type of test: biochemical, Leptosphaeria maculans. The method, then:
For purification of brassinin oxidase, 600 mL of 48 h old liquid cultures prepared as described above, were incubated with 3-phenylindole (19, 0.05 mM final concentration in cultures to induce BO) for an additional 24 h and then gravity filtered to separate mycelia from culture broth. The mycelia was stored at −20° C. up to 72 h and used to obtain protein extracts containing BO activity.
(§1) The reaction mixture contained DEA (20 mM, pH 8.3), DTT (1 mM), 0.1% (v/v) Triton X-100, brassinin (1, 1.0 mM), phenazine (0.50 mM), and protein extract (50-100 μL) in a total volume of 500 μL. The reaction was carried out at 24° C. for 20 min. A control reaction was stopped by the addition of EtOAc (2 mL) at t=0. The product was extracted with EtOAc (2 mL) and concentrated to dryness. The extract was dissolved in CH3CN (200 μL) and analyzed by HPLC-DAD. The amounts of brassinin (1) and indole-3-carboxaldehyde (3) in the reaction assay were determined using calibration curves built with […]. One enzyme unit (U) is defined as the amount of the enzyme that catalyzes the conversion of one micromole of substrate per minute (μmol·min^−1=U).
The purification of BO was performed in four steps as previously described.^17 The purified enzyme was used for screening test compounds for inhibitory activity. To determine potential inhibitors of BO, inhibition experiments were carried out using brassinin (1, 0.10 mM final concentration) and test compounds (0.10 and 0.30 mM final concentrations). Standard deviation values for assays were determined from four independent experiments.
The inhibitory effects of test compounds on BO activity were tested at 0.10 mM and 0.30 mM using brassinin (1) as substrate (0.10 mM) and purified BO.

Test [2] has as its system brassinin oxidase (BO) activity in mycelial cultures of L. maculans. The experiment in a line: Inducer effect of paldoxins: BO activity in cell-free extracts of treated mycelial cultures. Type of test: cell-based, Leptosphaeria maculans. The conditions noted are these: 24 h, control culture = 1.0. The procedure: (§2) Liquid cultures of L. maculans (virulent isolate BJ-125, IBCN collection, AAFC) were handled as described in the literature.^13 Fungal spores were subcultured on V8 agar under continuous light at 23±1° C.; after 15 days, fungal spores were collected aseptically and stored at −20° C.^14 Liquid cultures were initiated by inoculating minimal media (100 mL)^15 with fungal spores at 10^7/mL in Erlenmeyer flasks, followed by incubation on a shaker under constant light at 23±1° C.
(§3) For analysis of BO induction, 72 h old liquid cultures (20 mL) were co-incubated with test compounds (final concentrations in culture 0.10, 0.20, and 0.50 mM), and after an additional incubation for 24 h, the mycelia were separated from the culture broth by filtration.
(§4) Frozen mycelia (0.3-1.4 g) from L. maculans were suspended in ice-cold extraction buffer (1 mL) and ground (mortar) for 5 min. The extraction buffer consisted of diethanolamine(DEA, 25 mM, pH 8.3), 5% (v/v) glycerol, D,L-dithiothreitol (DTT, 1 mM), and 1/200 (v/v) protease inhibitor cocktail (P-8215, Sigma-Aldrich Canada). The homogenate was centrifuged at 4° C. for 30 min at 50000 g. The resulting supernatant was used for determination of specific activity of BO. Protein concentrations were determined as described by Bradford^16 using the Coomassie Brilliant Blue method with BSA as a standard.
as §1
(§5) Mycelial cultures of L. maculans were incubated with the test compounds (0.10, 0.20, and 0.50 mM) for 24 h to evaluate potential induction of BO activity. The cultures were filtered, the mycelia were extracted with extraction buffer, and the resulting cell-free extracts were analyzed for BO activity using brassinin (1) as substrate. The total protein content of each cell-free extract was determined using a calibration curve built using BSA.

Test [3] has as its system mycelial cultures of L. maculans. The experiment in a line: Antifungal activity: total protein content of cell-free extracts of treated mycelial cultures. Type of test: cell-based, Leptosphaeria maculans. Conditions: 24 h, control culture = 1.0. The method, then: as §2, §3, §4, §5
Test [4] concerns brassinin oxidase (BO). The conditions noted are these: 0.30 mM; reference compound, cited from ref. 17; cited from earlier work.
Setting [5] is: 0.10 mM added to mycelial cultures.
The mark [6] stands for this setting: 0.20 mM added to mycelial cultures.
The mark [7] stands for this setting: 0.50 mM added to mycelial cultures.

This is an account of results in patent publication US20100317703A1, “METHOD FOR INHIBITING BRASSININ OXIDASE” (UNIVERSITY OF SASKATCHEWAN, priority 2009, published 2010).

By Km is commonly meant the concentration of substrate that gives half-maximal velocity.

For the compound `c1ccc2c(-c3nccs3)c[nH]c2c1` [Camalexin], the “Inhibiton (%) of BO” value in the test on brassinin oxidase (BO) [1] (test compound 0.10 mM) was found to be 30 ± 4%; in the test on brassinin oxidase (BO) [1] (test compound 0.30 mM) it was 53 ± 4%; in the test with brassinin oxidase (BO) [1] (test compound 0.30 mM, listed as Camalexin I(h)), 53 ± 7%; in the test on brassinin oxidase (BO) [1] (test compound 0.30 mM, listed as camalexin) it was 53%. Moreover, the “Relative Specific Activity of BO” value in test [2] (setting [5]) came to 4.5 ± 0.5; in test [2] (setting [6]), 6.9±0.3; in test [2] (setting [7]), 2.5 ± 0.1. Moreover, the entries for the “Relative Protein” value in test [3] (setting [5]), in test [3] (setting [6]) and in test [3] (setting [7]) were 0.28, 0.24 and 0.10, respectively.

Take `CSC1=NCc2c([nH]c3ccccc23)S1` [Cyclobrassinin]: the “Inhibiton (%) of BO” value was found to be 23 ± 6% in the test with brassinin oxidase (BO) [1] (test compound 0.10 mM) and 37 ± 8% in the test with brassinin oxidase (BO) [1] (test compound 0.30 mM).

Turning to `Fc1ccc2[nH]cc(-c3nccs3)c2c1` [I(a), 5-Fluorocamalexin], the “Inhibiton (%) of BO” value in the test on brassinin oxidase (BO) [1] (test compound 0.10 mM) is given as 47 ± 5%; in the test on brassinin oxidase (BO) [1] (test compound 0.30 mM, listed as 5-Fluorocamalexin I(a)) it was 63 ± 2%; with brassinin oxidase (BO) [1] (test compound 0.30 mM, listed as 5-fluorocamalexin I(a)), “ca. 63%”. The “Relative Specific Activity of BO” value in test [2] (setting [5]) came out at 5.0 ± 0.2; in test [2] (setting [6]), 4.9 ± 0.4; in test [2] (setting [7]) it was 7.9 ± 0.6. For the same compound, the figures for the “Relative Protein” value in test [3] (setting [5]), in test [3] (setting [6]) and in test [3] (setting [7]) were 0.30, 0.23 and 0.19, respectively.

Consider `Fc1ccc2c(-c3nccs3)c[nH]c2c1` [I(b), 6-Fluorocamalexin], for which the entries for the “Inhibiton (%) of BO” value with brassinin oxidase (BO) [1] (test compound 0.10 mM) and in the test on brassinin oxidase (BO) [1] (test compound 0.30 mM) were 29 ± 10% and 46%, respectively. Moreover, the “Relative Specific Activity of BO” value in test [2] (setting [5]) is 3.9 ± 0.1; in test [2] (setting [6]), 4.0 ± 0.2; in test [2] (setting [7]), 1.8 ± 0.3. In addition, the “Relative Protein” value in test [3] (setting [5]) came to 0.36; in test [3] (setting [6]), 0.28; in test [3] (setting [7]) it was 0.24.

Turning to `COc1ccc2[nH]cc(-c3nccs3)c2c1` [I(c), 5-Methoxycamalexin], the “Inhibiton (%) of BO” value in the test with brassinin oxidase (BO) [1] (test compound 0.10 mM) is reported as 51 ± 4%; in the test with brassinin oxidase (BO) [1] (test compound 0.30 mM, listed as 5-Methoxycamalexin I(c)), 72 ± 1%; in the test on brassinin oxidase (BO) [1] (test compound 0.30 mM, listed as 5-methoxycamalexin I(c)), “ca. 72%”. Further, the “Relative Specific Activity of BO” value in test [2] (setting [5]) is 1.7 ± 0.3; in test [2] (setting [6]) it was 5.8 ± 0.6; in test [2] (setting [7]), 1.6 ± 0.3. Also, the “Relative Protein” value was found to be 0.28 in test [3] (setting [5]), 0.24 in test [3] (setting [6]) and 0.13 in test [3] (setting [7]).

For the compound `COc1ccc2c(-c3nccs3)c[nH]c2c1` [I(d), 6-Methoxycamalexin], the “Inhibiton (%) of BO” value in the test with brassinin oxidase (BO) [1] (test compound 0.10 mM) is recorded as 41 ± 6%; with brassinin oxidase (BO) [1] (test compound 0.30 mM, listed as 6-Methoxycamalexin I(d)), 63 ± 5%; in the test on brassinin oxidase (BO) [1] (test compound 0.30 mM, listed as 6-methoxycamalexin I(b)) it was “ca. 63%”. For the same compound, the figures for the “Relative Specific Activity of BO” value in test [2] (setting [5]), in test [2] (setting [6]) and in test [2] (setting [7]) were 2.3 ± 0.1, 3.7 ± 0.2 and 4.0 ± 0.1, respectively. Besides, the “Relative Protein” value in test [3] (setting [5]) was 0.27; in test [3] (setting [6]), 0.16; in test [3] (setting [7]) it was 0.11.

With `Fc1ccc2c(-c3ccccc3)c[nH]c2c1` [I(e), 6-Fluoro-3-phenylindole], the “Inhibiton (%) of BO” value with brassinin oxidase (BO) [1] (test compound 0.10 mM) amounted to 11 ± 4%; in the test with brassinin oxidase (BO) [1] (test compound 0.30 mM), 17 ± 6%.

With `c1ccc2cc(-c3cnsc3)ccc2c1` [I(g)], the “Relative Specific Activity of BO” value in test [2] (setting [5]) was 2.6 ± 0.2; in test [2] (setting [6]), 8.5 ± 0.1; in test [2] (setting [7]), 16.3 ± 3.3. Also, the figures for the “Relative Protein” value in test [3] (setting [5]), in test [3] (setting [6]) and in test [3] (setting [7]) were 0.26, 0.17 and 0.16, respectively.

As for `CSC(=S)NCc1cc2ccccc2[nH]1` [Isobrassinin], the figures for the “Inhibiton (%) of BO” value in the test with brassinin oxidase (BO) [1] (test compound 0.10 mM) and with brassinin oxidase (BO) [1] (test compound 0.30 mM) were 11 ± 5% and 23 ± 6%, respectively.

Take `c1ccc2[nH]c(-c3cscn3)nc2c1` [Thiabendazole, reference compound]: the results for the “Inhibiton (%) of BO” value in the test on brassinin oxidase (BO) [1] (test compound 0.10 mM) and with brassinin oxidase (BO) [1] (test compound 0.30 mM) were 16 ± 3% and 25 ± 7%, respectively. For the same compound, the figures for the “Relative Specific Activity of BO” value in test [2] (setting [5]), in test [2] (setting [6]) and in test [2] (setting [7]) were 1.9 ± 0.2, 4.1 ± 0.2 and 4.9 ± 0.3, respectively. The “Relative Protein” value in test [3] (setting [5]) turned out to be 0.35; in test [3] (setting [6]), 0.28; in test [3] (setting [7]) it was 0.06. Also, the BO inhibitory activity result in the test with brassinin oxidase (BO) [4] is listed as “ca. 25%”.

In the case of `CSC(=S)NCc1c[nH]c2ccccc12` [brassinin, Brassinin], the Km in the test with brassinin oxidase (BO) [1] (under the enzyme assay conditions) was 150 µM.
